# Test results: patent US20190314312A1, “COMBINATION THERAPY TO INCREASE ENDOGENOUS NITRIC OXIDE (NO) SYNTHESIS” (Yeda Research and Development Co. Ltd., priority 2016, published 2019)
# Entries after “also recorded” stand apart in the source; their conditions may differ.
# Key:
# Format in all cases: in vivo, mouse
# As1 = experiment: Immunohistochemistry staining of distal colon sections for As1; settings: after colitis induction, vs control mice with colitis, FIG. 3E, 4A
# Procedure: Four micrometer paraffin embedded tissue sections were deparaffinized and rehydrated. Endogenous peroxidase was blocked with three percent H2O2 in methanol. Sections undergoing for ALS staining were incubated in cold acetone at −20° C. for 7 minutes. For F4/80 and MAC-2 staining, the present inventors performed antigen retrieval in Tris-EDTA pH 9 and 10 mM citric acid pH 6, for 10 minutes, respectively, using a low boiling program in the microwave to break protein cross-links and unmask antigens. After pre-incubation with 20% normal horse serum and 0.2% Triton X-100 for 1 hour at RT (root temperature), sections were incubated with the primary antibodies as follow; ASL (1:100, Abcam, ab97370, CA, USA); F4/80 (1:50, Serotec, Kidllington, UK); Mac-2 (1:400, Cedarlane, N.C., USA). For fluorescent double-staining of ASL and CD11c the mouse anti ASL (1:50 Santa Cruz Biotechnology, Inc. sc-166787, TX, USA) and rabbit anti CD11c (1:50, ab52632) were used. All antibodies were diluted in PBS containing 2% normal horse serum and 0.2% Triton. Sections were incubated overnight at RT followed by 48 hours at 4° C. Sections were washed three times in PBS and incubated with secondary biotinylated IgG at RT (room temperature) for 1.5 hour, washed three times in PBS and incubated with avidin-biotin Complex (Elite-ABC kit, Vector Lab, CA, USA) at RT for additional 90 minutes followed by DAB (Sigma) reaction. For the fluorescent staining the CY2 conjugated anti mouse and CY3 conjugated streptavidin (1:100 and 1:200 respectively, Jackson ImmunoResearch, West Grove, Pa.) were used.
# enterocytes = experiment: FACS analysis of colon epithelial cells (enterocytes) after colitis induction
# Procedure: Colon segment was flushed with cold PBS, longitudinally cut open and rinsed to remove residual luminal contents. Tissue was cut into 3- to 5-mm pieces and incubated in HBSS medium containing EDTA 0.5 M and Hepes 10 mM at 37° C. for 20 minutes, shaken at 180 rpm, to separate epithelial fraction. Supernatant was centrifuged at 4° C. at 500 g for 10 minutes. Recovered tissue was digested in HBSS medium with 2% fetal bovine serum (FBS), 0.05% collagenase II and 0.05% DNase I (Sigma) for 40 minutes. at 37° C., shaken at 180 rpm. LP cells were filtered through 65 μm mesh and centrifuged at 4° C. at 500 g for 10 minutes. The present inventors prepared single cell suspensions from mouse colon by enzymatic digestion and analyzed by polychromatic flow cytometry. Samples were stained with conjugated antibodies or matching isotype controls according to manufacturer's instructions. Data were acquired on an LSRII (BD Biosciences) or FACSCalibur instrument (Becton-Dickinson) with CellQuest software, with a MacsQuant instrument (Miltenyi, Bergisch Gladbach, Germany), and analyzed using BD FACSDiva 6 or FlowJo software (version 7.6.5, or version vX.0.7 Tree Star Inc) or MacsQuant. Colon cells were stained for 30 min at 4° C. in flow cytometry buffer (PBS, 10% FCS and 0.02% azide). For antigens that require intracellular staining (As1, iNOS and S-nitrosocystein), cell surface staining was followed by cell fixation and permeabilization with the Cytofix/Cytoperm kit (BD Biosciences) according to the manufacturer's instructions. For staining, the present inventors used a lineage cocktail of antibodies anti-CD45-APC, Anti-CD64-PE, Anti-CD11c-PB, Anti-326-APC cy7, Anti CD31-PE cy7 (all from BioLegend). After staining for cell surface antigens, intracellular NO was detected by incubation of cells for 15 min at 37° C. with 10 μM DAF-FM diacetate followed by extensive washing, according to the manufacturer's instructions (Molecular Probes). Staining without addition of the DAF-FM probe was considered to be the baseline for gating the positive population. As1 was detected using anti-As1-ALEXA FLUOR® 488 (BD Biosciences), iNOS using anti-iNOS followed by anti-rat 488 (Jackson ImmunoResearch), and nitrosylation using anti-S-nitrosocystein (from abcam) followed by anti-mouse 488 (Jackson ImmunoResearch).
# [1] = system: CD45+ immune system cells; experiment: FACS analysis of colon CD45+ immune system cells after colitis induction; settings: fisetin vs control after colitis induction, FIGS. 14A-C
# Procedure: Colon segment was flushed with cold PBS, longitudinally cut open and rinsed to remove residual luminal contents. Tissue was cut into 3- to 5-mm pieces and incubated in HBSS medium containing EDTA 0.5 M and Hepes 10 mM at 37° C. for 20 minutes, shaken at 180 rpm, to separate epithelial fraction. Supernatant was centrifuged at 4° C. at 500 g for 10 minutes. Recovered tissue was digested in HBSS medium with 2% fetal bovine serum (FBS), 0.05% collagenase II and 0.05% DNase I (Sigma) for 40 minutes. at 37° C., shaken at 180 rpm. LP cells were filtered through 65 μm mesh and centrifuged at 4° C. at 500 g for 10 minutes. The present inventors prepared single cell suspensions from mouse colon by enzymatic digestion and analyzed by polychromatic flow cytometry. […] Data were acquired on an LSRII (BD Biosciences) or FACSCalibur instrument (Becton-Dickinson) with CellQuest software, with a MacsQuant instrument (Miltenyi, Bergisch Gladbach, Germany), and analyzed using BD FACSDiva 6 or FlowJo software (version 7.6.5, or version vX.0.7 Tree Star Inc) or MacsQuant. […] After staining for cell surface antigens, intracellular NO was detected by incubation of cells for 15 min at 37° C. with 10 μM DAF-FM diacetate followed by extensive washing, according to the manufacturer's instructions (Molecular Probes). […]
# C57BL/6J.OlaaHsd mice = experiment: DSS-induced colitis, treatment with arginine, citrulline, NaNO2, fisetin or citrulline plus fisetin; settings: day 12; fisetin, citrulline or both vs DMSO control; FIG. 4C
compound,measurement,setting,value
"O=c1c(O)c(-c2ccc(O)c(O)c2)oc2cc(O)ccc12 [fisetin, 3,7, 3′, 4′-tetrahydroxyflavone]","As1 expression in distal colon sections (intestine, enterocytes)",As1,up regulation
same,"As1 expression in distal colon sections (intestine, enterocytes)",As1; listed as fesitin,upregulated
same,NO levels in enterocytes (colon epithelial cells),"enterocytes; after colitis induction, treated vs control, FIGS. 3F-J, 4F-I",increased; also recorded: significant increase
same,iNOS expression in enterocytes (colon cells),"enterocytes; fisetin vs control after colitis induction, FIGS. 4J-K",increased; also recorded: significant increase
same,ASL levels in enterocytes,"enterocytes; fisetin, FIGS. 4H-L",increase
same,As1 levels,[1],decrease
same,iNOS levels,[1],not in the intestinal immune cells; also recorded: decrease
same,endoscopic colitis score,C57BL/6J.OlaaHsd mice,significant improvement
